Data reported in the supplement of paper PMC9103864.

Assays:
[1] = tested on: BMSC (primary human bone marrow mesenchymal stromal cells); experiment: absolute EC50 for viability; higher = less sensitive
[2] = tested on: BMSC (primary human bone marrow mesenchymal stromal cells); experiment: drug sensitivity score (DSS); higher = more sensitive

| SMILES | absolute EC50 for viability [1] | drug sensitivity score [2] |
| --- | --- | --- |
| COc1ccc(COc2cc3oc(=O)c4cc(C(C)O)ccc4c3cc2OC)cc1 (stereo not given) [Palomid-529] | > 10 µM | 0 |
| Cc1[nH]c2ccccc2c1CCNCc1ccc(/C=C/C(=O)NO)cc1 [Panobinostat] | 0.123 µM | 10.2 |
| Cc1ccc(Nc2nccc(N(C)c3ccc4c(C)n(C)nc4c3)n2)cc1S(N)(=O)=O [Pazopanib] | > 10 µM | 2.1 |
| NC(=O)c1cnc2[nH]ccc2c1NC1C2CC3CC1CC(O)(C3)C2 (stereo not given) [Peficitinb] | > 2.5 µM | 1.7 |
| Nc1nc2[nH]cc(CCc3ccc(C(=O)N[C@@H](CCC(=O)O)C(=O)O)cc3)c2c(=O)[nH]1 [Pemetrexed] | > 10 µM | 0.7 |
| OC[C@H]1O[C@@H](n2cnc3c2N=CNC[C@H]3O)C[C@@H]1O [Pentostatin] | > 10 µM | 0.4 |
| CCCCCCCCCCCCCCCCCCOP(=O)([O-])OC1CC[N+](C)(C)CC1 [Perifosine] | > 2.5 µM | 0 |
| NS(=O)(=O)OC[C@@H]1C[C@@H](n2ccc3c(N[C@H]4CCc5ccccc54)ncnc32)C[C@@H]1O [Pevonedistat] | > 10 µM | 5.4 |
| FC(F)(F)c1ccc(CNc2ccc(Cc3c[nH]c4ncc(Cl)cc34)cn2)cn1 [Pexidartinib] | > 10 µM | 3.6 |
| CS(=O)(=O)N1CCN(Cc2cc3nc(-c4cccc5[nH]ncc45)nc(N4CCOCC4)c3s2)CC1 [Pictilisib] | 1.28 µM | 11 |
| CC[C@@H]1C(=O)OC[C@@H]1Cc1cncn1C [Pilocarpine] | > 40 µM | 0 |
| CC(C)N(C[C@H]1O[C@@H](n2cnc3c(N)ncnc32)[C@H](O)[C@@H]1O)[C@H]1C[C@@H](CCc2nc3cc(C(C)(C)C)ccc3[nH]2)C1 [Pinometostat] | > 1 µM | 0 |
| Cc1ccc(=O)n(-c2ccccc2)c1 [Pirfenidone] | > 10 µM | 0 |
| NCCNc1ccc(NCCN)c2c1C(=O)c1ccncc1C2=O [Pixantrone] | > 10 µM | 0 |
| c1cc(CN2CCCNCCNCCCNCC2)ccc1CN1CCCNCCNCCCNCC1 [Plerixafor] | > 10 µM | 0 |
| CO[C@H](C(=O)[C@@H](O)[C@@H](C)O)[C@@H]1Cc2cc3cc(O[C@H]4C[C@@H](O[C@@H]5C[C@@H](O)[C@H](O)[C@@H](C)O5)[C@H](O)[C@@H](C)O4)c(C)c(O)c3c(O)c2C(=O)[C@H]1O[C@H]1C[C@@H](O[C@@H]2C[C@@H](O)[C@@H](O[C@@H]3C[C@](C)(O)[C@H](O)[C@@H](C)O3)[C@@H](C)O2)[C@H](O)[C@@H](C)O1 [Plicamycin] | > 10 µM | 2.1 |
| Nc1cccc2c1C(=O)N(C1CCC(=O)NC1=O)C2=O (stereo not given) [Pomalidomide] | > 10 µM | 0 |
| Cc1ccc(C(=O)Nc2ccc(CN3CCN(C)CC3)c(C(F)(F)F)c2)cc1C#Cc1cnc2cccnn12 [Ponatinib] | > 1 µM | 4.6 |
| C=CC(=O)N1CCC(Oc2cc3c(Nc4ccc(Cl)c(Cl)c4F)ncnc3cc2OC)CC1 [Poziotinib] | > 1 µM | 4.2 |
| CCCCc1nc2cc(/C=C/C(=O)NO)ccc2n1CCN(CC)CC [Pracinostat] | 1.56 µM | 8.8 |
| CC[C@H](C)C(=O)O[C@H]1C[C@H](O)C=C2C=C[C@H](C)[C@H](CC[C@@H](O)C[C@@H](O)CC(=O)O)[C@H]21 [Pravastatin] | > 10 µM | 0 |
| C[C@]12C=CC(=O)C=C1CC[C@@H]1[C@@H]2[C@@H](O)C[C@@]2(C)[C@H]1CC[C@]2(O)C(=O)CO [Prednisolone] | > 10 µM | 0 |
| Cn1cc(CNCC2CCN(c3ncc(C(=O)NO)cn3)CC2)c2ccccc21 [Quisinostat] | 0.181 µM | 8.3 |
| CC(C)(C)c1cc(NC(=O)Nc2ccc(-c3cn4c(n3)sc3cc(OCCN5CCOCC5)ccc34)cc2)no1 [Quizartinib] | > 1 µM | 2.2 |
| Cn1c(Nc2ccc(C(F)(F)F)cc2)nc2cc(Oc3ccnc(-c4ncc(C(F)(F)F)[nH]4)c3)ccc21 [RAF-265] | > 1 µM | 2.5 |
| Nc1cc(F)ccc1NC(=O)/C=C/c1cnn(C/C=C/c2ccccc2)c1 [RGFP966] | > 10 µM | 0.6 |
| COC(=O)c1ccc([C@H]2c3[nH]c4ccccc4c3C[C@H](C(=O)OC)N2C(=O)CCl)cc1 [RSL3] | > 10 µM | 0 |
| Cc1cnc(NC(=O)Nc2cc(Br)c(C)cc2OC[C@@H]2CNCCO2)cn1 [Rabusertib] | > 1 µM | 0 |

| SMILES | absolute EC50 for viability [1] | drug sensitivity score [2] |
| --- | --- | --- |
| Cc1cn(-c2cc(NC(=O)c3ccc(C)c(Nc4nccc(-c5cnccn5)n4)c3)cc(C(F)(F)F)c2)cn1 [Radotinib] | > 10 µM | 0 |
| CC(C)(C)Cn1c(N)nc2ccc(-c3[nH]c(C(C)(C)C)nc3-c3ccc(F)cc3)nc21 [Ralimetinib] | > 10 µM | 0.7 |
| O=C(c1ccc(OCCN2CCCCC2)cc1)c1c(-c2ccc(O)cc2)sc2cc(O)ccc12 [Raloxifene] | 7.96 µM | 2.6 |
| Cc1nc(=O)c2cc(CN(C)c3ccc(C(=O)N[C@@H](CCC(=O)O)C(=O)O)s3)ccc2[nH]1 [Raltitrexed] | > 1 µM | 0 |
| Cn1nccc1Nc1nccc(-c2ccn([C@H](CO)c3ccc(Cl)c(F)c3)c(=O)c2)n1 [Ravoxertinib] | > 10 µM | 0 |
| CNC(=O)c1cc(Oc2ccc(NC(=O)Nc3ccc(Cl)c(C(F)(F)F)c3)c(F)c2)ccn1 [Regorafenib] | > 10 µM | 0.7 |
| CCOC(=O)C1=CCCC[C@H]1S(=O)(=O)Nc1ccc(F)cc1Cl [Resatorvid] | 9.93 µM | 0 |
| CCOCc1nc2c(N)nc3ccccc3c2n1CC(C)(C)O [Resiquimod] | > 10 µM | 0 |
| CN(C)Cc1ccc(S(=O)(=O)n2ccc(/C=C/C(=O)NO)c2)cc1 [Resminostat] | 2.63 µM | 6 |
| CN(C)C(=O)c1cc2cnc(Nc3ccc(N4CCNCC4)cn3)nc2n1C1CCCC1 [Ribociclib] | > 10 µM | 2.2 |
| CO[C@H]1C[C@@H]2CC[C@@H](C)[C@@](O)(O2)C(=O)C(=O)N2CCCC[C@H]2C(=O)O[C@H]([C@H](C)C[C@@H]2CC[C@@H](OP(C)(C)=O)[C@H](OC)C2)CC(=O)[C@H](C)/C=C(\C)[C@@H](O)[C@@H](OC)C(=O)[C@H](C)C[C@H](C)/C=C/C=C/C=C/1C [Ridaforolimus] | > 0.1 µM | 7.6 |
| COc1cc(OC)c(/C=C/S(=O)(=O)Cc2ccc(OC)c(NCC(=O)O)c2)c(OC)c1 [Rigosertib] | > 10 µM | 8.9 |
| C[C@H]1CNCCCN1S(=O)(=O)c1cccc2cncc(F)c12 [Ripasudil] | > 10 µM | 1.1 |
| C=CC(=O)Nc1cccc(Nc2nc(Nc3ccc(N4CCN(C(C)=O)CC4)cc3OC)ncc2C(F)(F)F)c1 [Rociletinib] | 2.86 µM | 5.8 |
| O=C(CCCCCCNC(=O)c1cnc(N(c2ccccc2)c2ccccc2)nc1)NO [Rocilinostat] | > 10 µM | 1.8 |
| C/C=C1\NC(=O)[C@H]2CSSCC/C=C/[C@H](CC(=O)N[C@H](C(C)C)C(=O)N2)OC(=O)[C@H](C(C)C)NC1=O [Romidepsin] | 0.0097 µM | 23.2 |
| Cc1nc(C(=O)NCC(=O)O)c(O)c2ccc(Oc3ccccc3)cc12 [Roxadustat] | > 10 µM | 0.5 |
| CN(C)C[C@@H]1CCn2cc(c3ccccc32)C2=C(C(=O)NC2=O)c2cn(c3ccccc23)CCO1 [Ruboxistaurin] | 2.42 µM | 7 |
| CNCc1ccc(-c2[nH]c3cc(F)cc4c3c2CCNC4=O)cc1 [Rucaparib] | > 10 µM | 2.3 |
| N#CC[C@H](C1CCCC1)n1cc(-c2ncnc3[nH]ccc23)cn1 [Ruxolitinib] | > 10 µM | 0.2 |
| CC(C)N(CCCNC(=O)Nc1ccc(C(C)(C)C)cc1)C[C@H]1O[C@@H](n2cc(Br)c3c(N)ncnc32)[C@H](O)[C@@H]1O [SGC0946] | > 10 µM | 2.1 |
| COc1ccc(CCc2nc3cc(-c4c(C)noc4C)ccc3n2C[C@H](C)N2CCOCC2)cc1Cl [SGC-CBP30] | > 25 µM | 2.1 |
| CN1CCC(CNc2ccc3ncc(-c4cccc(OC(F)(F)F)c4)n3n2)CC1 [SGI-1776] | 1.4 µM | 9.6 |
| CN(CC(=O)N(Cc1ccc(C2CCCCC2)cc1)c1ccc(C(=O)O)cc1)S(=O)(=O)c1c(F)c(F)c(F)c(F)c1F [SH-4-54] | > 25 µM | 4 |
| CCc1c2c(nc3ccc(O)cc13)-c1cc3c(c(=O)n1C2)COC(=O)[C@]3(O)CC [SN-38] | 1.52 µM | 10 |
| CC(C)(C)c1cnc(CSc2cnc(NC(=O)C3CCNCC3)s2)o1 [SNS-032] | > 10 µM | 12.8 |
| Cc1cc2c(C(=O)NC[C@H](C)c3ccccc3)c(O)c(O)cc2c(O)c1-c1c(C)cc2c(C(=O)NC[C@H](C)c3ccccc3)c(O)c(O)cc2c1O [Sabutoclax] | 7.71 µM | 5.6 |
